Laboratory results taken from patent US7977364B2, “Indazoles, benzisoxazoles and benzisothiazoles and their use as estrogenic agents” (Laboratoire Thermamex, priority 2004, dated 2011).

Legend:
[1] = system: human endometrial adenocarcinoma Ishikawa cells; assay: Estrogenic and anti-estrogenic activities in vitro: induction of alkaline phosphatase (APase) activity; assay type: cell-based
How it was run: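 Ishikawa cells in phenol red-free DMEM with 5% charcoal-stripped dFCS; after incubation, APase measured via 5 mM p-nitrophenyl phosphate hydrolysis at pH 9.8, read at 405 nm after 15-60 min at room temperature. EC50 (estrogenic) and IC50 (anti-estrogenic) from sigmoidal dose-response curves.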

ovariectomized rats [2] = settings: rat, in vivo
[3] = target: purified full-length recombinant human ERβ (Homo sapiens, UniProt Q92731); assay: Estrogen receptor β competitive radiometric binding assay ([3H]-E2)
purified full-length recombinant human ERβ, sequence (Q92731 whole entry): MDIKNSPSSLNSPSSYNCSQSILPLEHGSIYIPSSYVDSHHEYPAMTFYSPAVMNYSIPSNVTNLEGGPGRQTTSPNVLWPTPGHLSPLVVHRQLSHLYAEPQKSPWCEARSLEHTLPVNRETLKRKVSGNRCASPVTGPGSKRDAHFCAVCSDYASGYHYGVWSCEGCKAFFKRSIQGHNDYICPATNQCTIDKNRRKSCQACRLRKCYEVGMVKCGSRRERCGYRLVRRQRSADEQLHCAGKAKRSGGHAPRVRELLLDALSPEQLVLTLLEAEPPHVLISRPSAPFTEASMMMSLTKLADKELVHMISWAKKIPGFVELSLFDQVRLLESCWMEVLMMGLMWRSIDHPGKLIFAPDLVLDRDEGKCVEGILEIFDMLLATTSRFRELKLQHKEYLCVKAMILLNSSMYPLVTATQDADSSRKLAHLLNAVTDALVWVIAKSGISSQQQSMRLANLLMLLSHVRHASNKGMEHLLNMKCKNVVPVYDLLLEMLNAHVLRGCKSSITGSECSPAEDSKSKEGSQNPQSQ
Procedure: Relative binding affinities (RBA) were determined by competitive radiometric binding assays, using purified full-length recombinant human ERα and ERβ (PanVera, Madison, Wis.). […] After shaking for a few seconds and centrifugation at 1500 g and 4° C. for 10 minutes, 150 μl/well of Optiphase ‘Super Mix’ scintillation liquid was mixed with 50 μl of supernatant of each sample and the radioactivity was measured in a MicroBeta counter (Wallac, Turku, Finland). Data were evaluated by a sigmoidal dose-response curve (Prism, GraphPad Software Inc.) to estimate the concentration of competitor at half-maximal specific binding (IC50). […] The selectivity for ERα and ERβ was obtained from the ratio R of the IC50 for ERα to the IC50 for ERβ for each test compound.

ovariectomized rats [4] = assay: Hot flush model in vivo: tail skin temperature, uteri and body weight

EC50 ([1]; Homo sapiens, Ishikawa, 96 h, compound alone, four days, ND = not detected, read-out: Estrogenic activity EC50 (nM) ± S.E.M): 1700 ± 168 nM
IC50 [3]: 41.8 ± 7.1 nM
ligand to estrogen receptor beta ([3]; in words): potent ligand
selectivity for the human recombinant estrogen receptor β ([3]; in words): marked selectivity
RBA (%) Mean ± S.E.M, ER β ([3]; ratio of IC50s of E2 and competitor, E2 set at 100%): 10.4 ± 4.0%
R (IC50s) αβ ([3]; ratio of the IC50 for ERα to the IC50 for ERβ): 31.9
SMILES: Oc1ccc2c(C3CCCC3)n[nH]c2c1 [Ex 23, 3-cyclopentyl-1H-indazol-6-ol]
estrogenic effect in alkaline phosphatase activity in the Ishikawa cell model ([1]; in words): weak estrogenic effect
side-effects on uteri (ovariectomized rats [2]): without deleterious side-effects on uteri
TST Variation day 1 vs day 0 (ovariectomized rats [4]; 0.3 mg/rat/day): −0.8 C. °
TST Variation day 4 vs day 0 (ovariectomized rats [4]; 0.3 mg/rat/day): −2.1 C. °
TST Variation day 7 vs day 0 (ovariectomized rats [4]; 0.3 mg/rat/day): −1.9 C. °
tail skin temperature of ovariectomized rat (ovariectomized rats [4]; in words): decreased tail skin temperature
